Legend:
[1] = test system: T cells isolated from mouse spleens; assay: T cell proliferation inhibition (CFSE flow cytometry, anti-CD3/anti-CD28 stimulation); format: cell-based, C57BL/6 mice; settings: three days
Method: To verify the T cell proliferation inhibitory effect of the compounds according to the present invention, the following experiment was performed based on flow cytometry analysis using carboxyfluorescein diacetate succinimidyl ester (CFSE), a fluorescent dye that binds to intracellular molecules via covalent bonds.
Spleens were extracted from 7-week-old C57BL/6 mice, ground, and then separated into single cells using a strainer (40 μm pore size, SPL). Red blood cells were removed using ACK (Ammonium-Chloride-Potassium) lysis buffer to isolate white blood cells.
Finally, using a MACS Magnetic Stand and LS column, T cells were isolated from the spleen.
The T cells isolated from the spleen were resuspended in 1 mL of free medium (RPMI-1640+200 U/mL penicillin+200 μg/mL streptomycin), and 0.3 μL of CFSE (10 mM) was added. The mixture was incubated at 37° C. for 5 minutes.
Free medium (10 mL) was added to stop the reaction, and the cells were centrifuged to obtain the cell pellet.
RPMI 1640 medium containing 10% FBS, 100 U/mL penicillin, 100 μg/mL streptomycin, and resuspended the cells. The cells were then seeded into a 96-well plate at a density of 2× 10^5 cells per well and activated with CD3 and CD28 antibodies (0.5 μg/mL each) to activate T cells.
The compound diluted in DMSO was added at concentrations of 10 nM, 100 nM, 1 μM, 10 μM, 30 μM, and 50 μM, with three wells per concentration, and cultured at 37° C. and 5% CO2 for three days. The cells were then analyzed using a FACS Canto instrument.
The proliferation inhibition rate (%) was calculated using the following formula: […]

[2] = test system: HCT-116 colon cancer cell lines; assay: Matrigel Invasion Assay on HCT-116 colon cancer cell line; format: cell-based, human; settings: HCT-116, Matrigel, 24 hours treatment, vs DMSO
Method: To evaluate the metastasis inhibitory efficacy of the compounds of the present invention on HCT-116 colon cancer cell lines, an Invasion Assay using Matrigel was performed to assess the cells' invasion ability.
First, Matrigel was thawed on ice in RPMI-1640 medium without FBS, then diluted with DMEM at a ratio of 1:20.
The diluted Matrigel mixture was applied to the upper chamber at 100 μl per well, and 750 μl of RPMI-1640 without FBS was added to the lower chamber.
The plates were then incubated at 37° C. for 1 hour to allow the Matrigel to solidify.
After coating, the Matrigel mixture in the upper chamber was removed using a pipette, and the chamber was washed with RPMI without FBS.
Human-derived colorectal cancer cell line HCT-116, obtained from the Korean Cell Bank, was cultured in RPMI-1640 medium containing 10% FBS.
Following stabilization, the cells were harvested using Trypsin-EDTA treatment, centrifuged at 1,200 rpm for 3 minutes, the supernatant was removed, and the cells were resuspended in the same medium, the medium in the lower chamber was replaced with 750 μl of RPMI-1640 supplemented with 10% FBS, and the cells were seeded into the upper chamber at a density of 5×10^4 cells/well.
The cells were cultured for 24 hours after attachment, and then the compounds according to the present invention (G078, G085, G086, G088, G089, PBK-2024-010, PBK-2025-010, PBK-2025-013, PBK-2025-016) and the control substance DMSO were diluted and added to the upper chamber after removing the medium.
Additionally, the medium in the lower chamber was replaced with fresh RPMI-1640 containing FBS, and the culture was continued.
After an additional 24 hours, the medium was removed, and 1 ml of methanol was added for 10 minutes to fix the cells.
Subsequently, 1 ml of Hematoxylin was added and reacted for 5 minutes, followed by 1 ml of Eosin, which was reacted for 30 seconds. The sample was then washed with distilled water (DW).
After staining was complete, any remaining cells in the upper chamber were removed. Finally, the infiltrated cells were observed under a microscope, photographed, and the degree of infiltration was analyzed.

[3] = test system: Human B Lymphocyte cell line, SU-DHL-8; assay: Relative cell viability, SU-DHL-8 (CCK-8); format: cell-based; settings: 48 hours, untreated (DMSO) = 100%
Method: Human-derived B lymphoma cell line SU-DHL-8 (Cat. #CRL-2961) purchased from ATCC was cultured in RPMI-1640 medium containing 10% FBS, 100 U/mL penicillin, and 100 μg/mL streptomycin.
The cell culture medium was then harvested, centrifuged at 1,300 rpm for 5 minutes, and the supernatant was removed. The cells were resuspended in the same medium and dispensed into a 96-well plate (Costar 96-well cell culture plate, Corning) at 90 μL per well, resulting in the conditions specified in Table 5.
Then, 10 μL of CCK-8 was added to each well, and the plates were incubated again at 37° C. in a 5% CO2 incubator for 4 hours.
In other words, when the survival rate of untreated cells (DMSO) is set at 100%, the relative cell survival rate in each group treated with the drug at different concentrations is indicated.

12-(4-hydroxypiperazin-1-yl)dodecyl-N-(6-aminopurazin-2-yl) carboxamide [Compound 10]
Proliferation inhibition rate (%) ([1]; concentration 10 nM): 100.00%
Proliferation inhibition rate (%) ([1]; concentration 100 nM): 100.00%
Proliferation inhibition rate (%) ([1]; concentration 1 μM): 100.00%
Proliferation inhibition rate (%) ([1]; concentration 10 μM): 100.00%
Proliferation inhibition rate (%) ([1]; concentration 30 μM): 100.00%
Proliferation inhibition rate (%) ([1]; concentration 50 μM): 100.00%
number of infiltrated cells (invasion) [2]: reduction in the number of infiltrated cells

Nc1ncccc1C(=O)NCCCCCCCCCCCCN1CCNCC1 [Compound 5, 2-Amino-N-(12-(piperazin-1-yl)dodecyl)-nicotinamide]
number of infiltrated cells (invasion) [2]: reduction in the number of infiltrated cells

O=C(NCCCCCCCCCCCCN1CCN2CCCC2C1)c1cccnc1 (stereo not shown) [Compound 23, N-(12-(hexahydropyrrolo[1,2-a]pyrazin-2 (1H)-yl)dodecyl) nicotinamide]
number of infiltrated cells (invasion) [2]: reduction in the number of infiltrated cells

CC(C)(C)OC(=O)N[C@H]1CCN(CCCCCCCCCCCCNC(=O)c2cccnc2N)C1 [Compound 49, tert-Butyl(S)-(1-(12-(2-aminonicotinamido)dodecyl)pyrrolidin-3-yl) carbamate]
Proliferation inhibition rate (%) ([1]; concentration 100 nM): 100.00%
Proliferation inhibition rate (%) ([1]; concentration 1 μM): 100.00%
Proliferation inhibition rate (%) ([1]; concentration 10 μM): 100.00%
Proliferation inhibition rate (%) ([1]; concentration 30 μM): 100.00%
Proliferation inhibition rate (%) ([1]; concentration 50 μM): 100.00%
number of infiltrated cells (invasion) [2]: reduction in the number of infiltrated cells
Relative cell viability (%) ([3]; SU-DHL-8, 1 μM): 8.93%
Relative cell viability (%) ([3]; SU-DHL-8, 10 μM): 8.02%
Relative cell viability (%) ([3]; SU-DHL-8, 30 μM): 7.48%
Relative cell viability (%) ([3]; SU-DHL-8, 50 μM): 4.09%

Cc1ccc(OC2CCN(CCCCCCCCCCCCNC(=O)c3cccnc3N)CC2)cc1 [Compound 51, 2-Amino-N-(12-(4-(p-tolyloxy)piperidin-1-yl)dodecyl) nicotinamide]
Proliferation inhibition rate (%) ([1]; concentration 10 nM): 0.77%
Proliferation inhibition rate (%) ([1]; concentration 1 μM): 100.00%
Proliferation inhibition rate (%) ([1]; concentration 10 μM): 100.00%
Proliferation inhibition rate (%) ([1]; concentration 30 μM): 100.00%
Proliferation inhibition rate (%) ([1]; concentration 50 μM): 100.00%
Relative cell viability (%) ([3]; SU-DHL-8, 1 μM): 3.48%
Relative cell viability (%) ([3]; SU-DHL-8, 10 μM): 1.98%
Relative cell viability (%) ([3]; SU-DHL-8, 30 μM): 0.89%
Relative cell viability (%) ([3]; SU-DHL-8, 50 μM): 0.48%

Nc1ncccc1C(=O)NCCCCCCCCCCCCN1CC(F)C1 [Compound 52, 2-Amino-N-(12-(3-fluoroazetidin-1-yl)dodecyl)nicotinamide]
number of infiltrated cells (invasion) [2]: reduction in the number of infiltrated cells

Nc1ncccc1C(=O)NCCCCCCCCCCCCN1CCN(CCO)CC1 [Compound 54, 2-Amino-N-(12-(4-(2-hydroxyethyl)piperazin-1-yl)dodecyl) nicotinamide]
Proliferation inhibition rate (%) ([1]; concentration 100 nM): 100.00%
Proliferation inhibition rate (%) ([1]; concentration 1 μM): 100.00%
Proliferation inhibition rate (%) ([1]; concentration 10 μM): 100.00%
Proliferation inhibition rate (%) ([1]; concentration 30 μM): 100.00%
Proliferation inhibition rate (%) ([1]; concentration 50 μM): 100.00%
Relative cell viability (%) ([3]; SU-DHL-8, 1 μM): 6.42%
Relative cell viability (%) ([3]; SU-DHL-8, 10 μM): 4.05%
Relative cell viability (%) ([3]; SU-DHL-8, 30 μM): 3.26%
Relative cell viability (%) ([3]; SU-DHL-8, 50 μM): 2.23%

Cc1ccc(C2CCN(CCCCCCCCCCCCNC(=O)c3cccnc3N)CC2)cc1 [Compound 55, 2-Amino-N-(12-(4-(p-tolyl)piperidin-1-yl)dodecyl) nicotinamide]
Proliferation inhibition rate (%) ([1]; concentration 100 nM): 100.00%
Proliferation inhibition rate (%) ([1]; concentration 1 μM): 100.00%
Proliferation inhibition rate (%) ([1]; concentration 10 μM): 100.00%
Proliferation inhibition rate (%) ([1]; concentration 30 μM): 100.00%
Proliferation inhibition rate (%) ([1]; concentration 50 μM): 100.00%
Relative cell viability (%) ([3]; SU-DHL-8, 1 μM): 9.36%
Relative cell viability (%) ([3]; SU-DHL-8, 10 μM): 4.92%
Relative cell viability (%) ([3]; SU-DHL-8, 30 μM): 1.10%
Relative cell viability (%) ([3]; SU-DHL-8, 50 μM): 0.97%

Cl.O=C(NCCCCCCCCCCCCN1CCNCC1)c1ccc(-c2ccccc2)o1 [Compound 90, 5-Phenyl-N-(12-(piperazin-1-yl)dodecyl) furan-2-carboxamide hydrochloride]
Proliferation inhibition rate (%) ([1]; concentration 10 μM): 100.00%
Proliferation inhibition rate (%) ([1]; concentration 30 μM): 100.00%
Proliferation inhibition rate (%) ([1]; concentration 50 μM): 100.00%
Relative cell viability (%) ([3]; SU-DHL-8, 1 μM): 7.19%
Relative cell viability (%) ([3]; SU-DHL-8, 10 μM): 5.94%
Relative cell viability (%) ([3]; SU-DHL-8, 30 μM): 2.48%
Relative cell viability (%) ([3]; SU-DHL-8, 50 μM): 1.94%

CN1CCN(CCCCCCCCCCCCNC(=O)c2cccnc2F)CC1 [Compound 121, 2-fluoro-N-(12-(4-methylpiperazin-1-yl)dodecyl) nicotinamide]
Proliferation inhibition rate (%) ([1]; concentration 10 nM): 0.00%
Proliferation inhibition rate (%) ([1]; concentration 100 nM): 0.00%
Proliferation inhibition rate (%) ([1]; concentration 1 μM): 0.00%
Proliferation inhibition rate (%) ([1]; concentration 10 μM): 30.00%
Proliferation inhibition rate (%) ([1]; concentration 30 μM): 100.00%
Proliferation inhibition rate (%) ([1]; concentration 50 μM): 100.00%
Relative cell viability (%) ([3]; SU-DHL-8, 1 μM): 34.89%
Relative cell viability (%) ([3]; SU-DHL-8, 10 μM): 28.99%
Relative cell viability (%) ([3]; SU-DHL-8, 30 μM): 29.04%
Relative cell viability (%) ([3]; SU-DHL-8, 50 μM): 31.11%

Nc1ncccc1C(=O)NCCCCCCCCCCCCN1CC(F)(F)C1 [Compound 122, 2-Amino-N-(12-(3,3-difluoroazetidin-1-yl)dodecyl) nicotinamide]
Proliferation inhibition rate (%) ([1]; concentration 10 nM): 0.00%
Proliferation inhibition rate (%) ([1]; concentration 100 nM): 0.00%
Proliferation inhibition rate (%) ([1]; concentration 1 μM): 80.00%
Proliferation inhibition rate (%) ([1]; concentration 10 μM): 100.00%
Proliferation inhibition rate (%) ([1]; concentration 30 μM): 100.00%
Proliferation inhibition rate (%) ([1]; concentration 50 μM): 100.00%
Relative cell viability (%) ([3]; SU-DHL-8, 1 μM): 31.84%
Relative cell viability (%) ([3]; SU-DHL-8, 10 μM): 31.91%
Relative cell viability (%) ([3]; SU-DHL-8, 30 μM): 32.93%
Relative cell viability (%) ([3]; SU-DHL-8, 50 μM): 35.70%

COC1CCN(CCCCCCCCCCCCNC(=O)c2cccnc2N)C1 (stereo not shown) [Compound 126, 2-amino-N-(12-(3-methoxypyrrolidin-1-yl)dodecyl) nicotinamide]
Proliferation inhibition rate (%) ([1]; concentration 10 nM, listed as K-PB-48, 0.01 µM): 0.00%
Proliferation inhibition rate (%) ([1]; concentration 100 nM): 100.00%
Proliferation inhibition rate (%) ([1]; concentration 1 μM): 100.00%
Proliferation inhibition rate (%) ([1]; concentration 10 μM): 100.00%
Proliferation inhibition rate (%) ([1]; concentration 30 μM): 100.00%
Proliferation inhibition rate (%) ([1]; concentration 50 μM): 100.00%
Relative cell viability (%) ([3]; SU-DHL-8, 1 μM, listed as K-PB-48, 1 µM): 33.03%
Relative cell viability (%) ([3]; SU-DHL-8, 10 μM, listed as K-PB-48, 10 µM): 31.98%
Relative cell viability (%) ([3]; SU-DHL-8, 30 μM, listed as K-PB-48, 30 µM): 32.32%
Relative cell viability (%) ([3]; SU-DHL-8, 50 μM, listed as K-PB-48, 50 µM): 30.44%

Nc1ncccc1C(=O)NCCCCCCCCCCCCN1CC=CC1 [Compound 129, 2-amino-N-(12-(2,5-dihydro-1H-pyrrol-1-yl)dodecyl) nicotinamide]
Proliferation inhibition rate (%) ([1]; concentration 10 nM): 0.00%
Proliferation inhibition rate (%) ([1]; concentration 100 nM): 90.00%
Proliferation inhibition rate (%) ([1]; concentration 1 μM): 100.00%
Proliferation inhibition rate (%) ([1]; concentration 10 μM): 100.00%
Proliferation inhibition rate (%) ([1]; concentration 30 μM): 100.00%
Proliferation inhibition rate (%) ([1]; concentration 50 μM): 100.00%
Relative cell viability (%) ([3]; SU-DHL-8, 1 μM): 34.26%
Relative cell viability (%) ([3]; SU-DHL-8, 10 μM): 33.99%
Relative cell viability (%) ([3]; SU-DHL-8, 30 μM): 35.05%
Relative cell viability (%) ([3]; SU-DHL-8, 50 μM): 34.27%

From patent publication US20260183302A1, “PDK1 REGULATORY COMPOUND AND COMPOSITION CONTAINING THE SAME” (PROVIBIO CO., LTD., priority 2024, published 2026)
